From ChEMBL document CHEMBL1201862, “PubChem BioAssay data set” (2004) come the findings set out here.

Some test systems named below: A498; A549; HCT-15; HL-60; IGROV-1; K562; LXFL 529; MCF7; MDA-MB-231; Malme-3M; NCI-H226; NCI/ADR-RES; PC-3; SF-539; SK-MEL-2; SK-OV-3; SN12C; TK-10; U-251; UO-31.
What all share (experiment): growth of human tumour cells (NCI), 48 h

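Interpolation was linear, between the two tested concentrations surrounding the appropriate level; five concentrations were tested over 48 hours in 96-well plates. Abbreviation: GI50, concentration required for 50% inhibition of growth.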 Calls of active or inactive are those of the source. Rule as the data show it: active = GI50 up to about 1.1 µM and inactive = higher.

`CC(C)(C)C1CCC2(CC1)CCN(CCCN1CCOCC1)CC2`: the GI50 in the assay on A498 is 34.7 µM (inactive); in the assay with A549, > 49.9 µM (inactive); in the assay on HCT-15 it was 22.3 µM; in the assay on HL-60, 13.1 µM (inactive); in the assay with IGROV-1, > 65 µM (inactive); in the assay with K562, 8.51 µM (inactive). The GI50 is 8.36 µM (inactive) in the assay with LXFL 529; > 100 µM (inactive) in the assay on MCF7; > 100 µM (inactive) in the assay with MDA-MB-231; 18.5 µM (inactive) with Malme-3M; > 95.7 µM (inactive) in the assay with NCI-H226; > 100 µM (inactive) with NCI/ADR-RES. The GI50 with PC-3 is > 100 µM (inactive); in the assay on SF-539, 18.7 µM (inactive); in the assay on SK-MEL-2, 20 µM (inactive); in the assay with SK-OV-3 it was > 100 µM (inactive); in the assay on SN12C, > 86.3 µM (inactive); in the assay on TK-10, > 100 µM (inactive). Further, the GI50 was > 35.2 µM (inactive) with U-251 and 48.3 µM (inactive) in the assay with UO-31.

`CC(=O)NC(CCCN(Cc1ccccc1)C(=O)NCCCl)C(=O)NCc1ccccc1` (configuration not stated): the GI50 with A498 was > 100 µM (inactive); with A549 it was > 100 µM (inactive); in the assay on HCT-15 it was greater than 100 µM; with HL-60, > 100 µM (inactive); in the assay on IGROV-1, > 100 µM (inactive); in the assay with K562, > 100 µM (inactive). Further, the GI50 with LXFL 529, with Malme-3M, in the assay on NCI-H226, in the assay with SF-539, in the assay with SK-MEL-2 and in the assay with SK-OV-3 was > 100 µM (inactive) in each case. The GI50 in the assay on SN12C, in the assay on TK-10, in the assay on U-251 and in the assay with UO-31 was > 100 µM (inactive) in each case.

For `Cc1ccc(S(=O)(=O)N/N=C(\c2nc3ccc(Cl)cc3nc2O)C(O)c2cccc([N+](=O)[O-])c2)cc1` (configuration not stated), the GI50 in the assay on A498 is > 100 µM (inactive); with A549, > 100 µM (inactive); in the assay on HCT-15 it was greater than 100 µM; in the assay on HL-60, > 100 µM (inactive); in the assay on IGROV-1, > 100 µM (inactive); in the assay with K562, > 100 µM (inactive). Moreover, the GI50 in the assay with LXFL 529, with Malme-3M, in the assay on NCI-H226, in the assay on SF-539, in the assay on SK-MEL-2 and in the assay on SK-OV-3 was > 100 µM (inactive) in each case. In addition, the GI50 with SN12C, in the assay with TK-10, in the assay on U-251 and with UO-31 was > 100 µM (inactive) throughout.

Take `CNCCCNc1c2ccccc2nc2cccc([N+](=O)[O-])c12`: the GI50 was 0.0029 µM (active) in the assay on A498; 0.00187 µM (active) in the assay on A549; 0.00957 µM with HCT-15; 0.01 µM (active) in the assay with HL-60; 0.00726 µM (active) in the assay on IGROV-1; 0.00407 µM (active) in the assay with K562. The GI50 in the assay on LXFL 529 is 0.00665 µM (active); with MCF7, 0.00143 µM (active); in the assay with MDA-MB-231, 0.00158 µM (active); in the assay with Malme-3M, 0.0043 µM (active); in the assay on NCI-H226, 0.018 µM (active); with NCI/ADR-RES, 0.00861 µM (active). Further, the GI50 is 0.00182 µM (active) in the assay on PC-3; 0.00634 µM (active) with SF-539; 0.00332 µM (active) in the assay with SK-MEL-2; 0.0103 µM (active) in the assay on SK-OV-3; 0.00561 µM (active) in the assay on SN12C; 0.00675 µM (active) in the assay with TK-10. Also, the GI50 in the assay on U-251 was 0.00344 µM (active); in the assay with UO-31, 0.00845 µM (active).
